Laboratory results reported in PMC6410202, “Dual Action of the PN159/KLAL/MAP Peptide: Increase of Drug Penetration across Caco-2 Intestinal Barrier Model by Modulation of Tight Junctions and Plasma Membrane Permeability” (Pharmaceutics, 2019).

Tests used:
Caco-2 epithelial cells [1] = test: MTT assay, Caco-2 cell viability; format: cell-based, human; conditions: 1-h treatment
Experimental: The human Caco-2 intestinal epithelial cell line was purchased from ATCC (cat.no. HTB-37). Caco-2 cells were grown in DMEM/HAM’s F-12 culture medium with stable glutamine (Life Technologies, Gibco, Carlsbad, CA, USA) supplemented with 10% fetal bovine serum (Life Technologies, Gibco, Carlsbad, CA, USA and 50 μg/mL gentamycin in a humidified incubator with 5% CO2 at 37 °C. All plastic surfaces were coated with 0.05% rat tail collagen in sterile distilled water before cell seeding.
The PN159 peptide stock solution (5 mM) was prepared freshly in sterile DMSO. Treatment solutions were further diluted in Ringer-Hepes (150 mM NaCl, 6 mM NaHCO3, 5.2 mM KCl, 2.2 mM CaCl2, 0.2 mM MgCl2, 2.8 mM D-glucose, 5 mM Hepes; pH 7.4) or cell culture medium. Final concentrations of the peptide in treatment solutions were as follows: 1, 3, 10, 30 and 100 µM for cell viability assays; 1, 3, 10 and 30 µM for the barrier integrity assays and 10 µM for the recovery measurements.
For the cell viability assays Caco-2 epithelial cells were seeded to 96-well plates at the density of 6 × 10^3 cells/well (Orange Scientific) and cultured for 3-5 days. Confluent cultures were treated with PN159 peptide (1, 3, 10, 30 and 100 μM) in phenol red free DMEM (Life Technologies, Gibco, Carlsbad, CA, USA) for 1-h. This viability assay was performed at three different time points: (i) immediately after the 1-h treatment, (ii) at one-day recovery, (iii) at one-week recovery. To determine 100% toxicity, cells were incubated with 1 mg/mL Triton X-100 detergent. After treatment the medium was changed and 0.5 mg/mL MTT (3-(4,5-dimethyltiazol-2-yl)-2,5-diphenyltetrazolium bromide) solution was added to the cells for 3 h. During the incubation cells were kept in a CO2 incubator. The metabolic activity of cells is reflected by the conversion of the yellow MTT dye to purple formazan. Formazan crystals were dissolved in DMSO and the amount of converted dye was determined by measuring absorbance at 595 nm wavelength with a microplate reader (Fluostar Optima, BMG Labtechnologies, Ortenberg, Germany). Cell viability and/or metabolic activity was calculated as percentage of dye conversion by non-treated cells.

[2] = Circular dichroism spectroscopy of the peptide; format: physicochemical; conditions: CD
Experimental: Far-UV circular dichroism (CD) spectra of the peptides were recorded at 25°C temperature on a J-810 spectropolarimeter (JASCO International Co. Ltd., Tokyo, Japan). The CD spectra were measured between 260 nm and 185 nm with an optical pathlength of 1 mm, at a peptide concentration of 0.1 mg/mL in Milli-Q water diluted directly from powder. The bandwidth was 2 nm and data pitch 0.5 nm, the scan speed was set to 100 nm/min and the integration time was 1 sec. Ten spectra were accumulated and plotted. The data were analyzed by CDSSTR method. To test the thermostability of the peptide structure the CD spectra were recorded between 25 °C and 55 °C temperature with a ramp rate of 5 °C/min on a JASCO J-810 spectropolarimeter by using a Peltier sample holder. The CD spectra were measured immediately between 260 and 185 nm with an optical pathlength of 1 mm, the peptide concentration was 0.1 mg/mL in Milli-Q water. The bandwidth was 2 nm and data pitch 1 nm, the scan speed was set to 100 nm/min, and the integration time was 1 sec. Five spectra were accumulated and plotted.

Caco-2 epithelial cells [3] = test: Ethidium homodimer-1 staining, cell membrane integrity; format: cell-based, human; conditions: PN159 1 to 10 μM, 24-h treatments
Experimental: Besides the junctional effects, changes in the cell membrane integrity were also examined by ethidium homodimer-1 (856.77 Da) staining of Caco-2 epithelial cells after 24-h treatments in the concentration range of 1 to 10 μM.
Figure 7 (A) Fluorescent staining of juntional protein zonula occludens-1 and double staining of cell nuclei in Caco-2 cells after 1-h treatment with PN159 peptide. Green color: immunostaining for ZO-1. Red color: staining by ethidium homodimer-1 (EH-1), indicating increased membrane permeability.Blue color: staining of all cell nuclei by H33342. Bar = 10 µm. (B) Confocal microscopy images of living Caco-2 epithelial cells incubated with Bodipy FL labeled PN159 peptide in different concentrations for 5 min at 37°C. Green color: BodipyFL-PN159 peptide. Blue color: staining of cell nuclei. Bar = 10 µm.

[4] = tested on: respiratory epithelial tissue (EpiAirway model); set-up: method as in PMID 16625659; conditions: 1-h treatment; cited from earlier work
claudin-5 = tested on: claudin-5; set-up: method as in PMID 26869428; conditions: affinity measurements; cited from earlier work

In the case of CC(C)C[C@H](NC(=O)[C@H](C)NC(=O)[C@H](CCCCN)NC(=O)[C@H](CC(C)C)NC(=O)[C@H](C)NC(=O)[C@H](CC(C)C)NC(=O)[C@H](CCCCN)NC(=O)[C@H](CC(C)C)NC(=O)[C@H](C)NC(=O)[C@H](CC(C)C)NC(=O)[C@@H](N)CCCCN)C(=O)N[C@@H](CCCCN)C(=O)N[C@@H](C)C(=O)N[C@@H](C)C(=O)N[C@@H](CC(C)C)C(=O)N[C@@H](CCCCN)C(=O)N[C@@H](CC(C)C)C(=O)N[C@@H](C)C(N)=O [PN159], the “Non-toxic concentration (MTT and impedance)” value (Caco-2 epithelial cells [1]; Caco-2) was no more than 10 µM, the “Toxicity (MTT and impedance)” value (Caco-2 epithelial cells [1]; PN159 30 μM) was “reversible” and the “Toxicity (MTT and impedance)” value (Caco-2 epithelial cells [1]; PN159 100 μM) was “toxic”. For the same molecule, the “Reversibility of cytotoxic effect (MTT)” value (Caco-2 epithelial cells [1]; PN159 100 μM, 1-day or 1-week recovery) was “not reversible after one day or even one week”, the “Cell viability (MTT)” value (Caco-2 epithelial cells [1]; PN159 1–10 μM, Caco-2) was “did not decrease cell viability” and the “Cell viability (MTT)” value (Caco-2 epithelial cells [1]; PN159 30 and 100 μM, Caco-2) was “cell damage”. For the same molecule, the “Secondary structure, turns” value ([2]; 25 °C, 0.1 mg/mL in water) was 24%, the “Secondary structure, unordered structure” value ([2]; 25 °C, 0.1 mg/mL in water) was 34% and the “Secondary structure, α-helix” value ([2]; 25 °C, 0.1 mg/mL in water) was 11%. The “Secondary structure, β-sheet” value ([2]; 25 °C, 0.1 mg/mL in water) was 31%, the “Thermostability of secondary structure” value ([2]; between 25 and 55 °C) was “stable” and the “Plasma membrane entry of ethidium homodimer-1” value (Caco-2 epithelial cells [3]) was “Only the highest PN159 concentration caused plasma membrane entry of the red fluorescent dye”. The “Safe concentration (MTT)” value [4] was “up to 100 μM” and the Binding (claudin-5) was “in the micromolar range”.
